Values after ≈ are worked out from the molar mass of the structure shown. “Also recorded” adds a separate entry of the source.
What was measured:
Heliothis virescens [1] = test: Artificial diet feeding bioassay, mortality and growth inhibition in first-instar larvae; format: in vivo, Heliothis virescens (tobacco budworm); conditions: for EC50 (concentration causing 50% growth inhibition): Table 1, first-instar Heliothis virescens larvae, artificial diet, parentheses = 95% confidence limits
Excerpt: The results of the growth inhibitory and lethal activities of azadirachtin and these 8 derivatives when fed in an artificial diet to Heliothis virescens larvae are shown in Table 1. Similar to the results of Morgan, E. D., in "Natural pesticides from the Neem tree (Azadirachta indica A. Juss), Schmutterer, H., et al., Eds., Proc. First International Neem Conference (Rottach-Egern, 1980), German Agency for Technical Corporation,Eschborn, Germany, 1982, pps. 43-52 (hereinafter "Morgan"), neither deacetylation nor hydrogenation of the carbon-carbon double bond of the dihydrofuran ring moiety of azadirachtin had any significant effect on activity of the compound against H. virescens.
Mortality and growth inhibition in first-instar Heliothis
virescens larvae fed azadirachtin and eight derivatives in an
artificial diet (I. Kubo and J. A. Klocke, In: Plant Resistance to
Insects (P. A. Helin, Ed.), ACS Symposium Series 208, American Chemical
Society, Washington, D.C. (1983), pp. 329-346.).^a
^b LC50 values are the concentrations (ppm) causing 50%
^c EC50 values are the concentrations (ppm) causing 50% growth
^d Numbers in parentheses are the 95% confidence limits determined
using the methods of Litchfield and Wilcoxon, J. Pharmacol. Exp. Ther.
An artificial diet feeding bioassay with neonate larvae of tobacco budworm (Heliothis virescens) and fall armyworm (Spodoptera frugiperda) was used as previously described (Kubo and Klocke, 1983) to detect insecticidal activities in the plant extracts to monitor fractionation, and to determine the potency of the isolated constituents and derivatives. Potency was determined either as the effective concentration (EC50) of added material that is necessary to reduce larval growth to 50% of the control values or as the lethal concentration (LC50) of added material that is necessary to kill 50% of the treated larvae. EC50 and LC50 values were determined from log probit paper and analyzed statistically by the method of Litchfield and Wilcoxon, supra.

[2] = UV stability in ethanol by reversed phase HPLC; format: physicochemical; conditions: for UV lability (in words): UV irradiation, HPLC
Protocol: Stability of Azadirachtin derivatives was determined as follows:
(§1) Azadirachtin, 3-deacetylazadirachtin, 22,23-dihydroazadirachtin, and 2',3',22,23-tetrahydroazadirachtin (1.0 mg/ml absolute ethanol) were placed individually in capped quartz NMR tubes (5×180 mm) and were irradiated with two UV germicidal lights (GE, G30T8, 200-280 nm, 30W) 1.8 m from the source at room temperature for up to 400 h. The controls were identical samples protected from exposure to UV radiation by wrapping with aluminum foil. At selected time intervals, aliquots from both the controls (non-irradiated) and irradiated samples were removed for high-performance liquid chromatography (HPLC) analysis and bioassay (vide infra).
Analytical reversed phase HPLC was performed on a phenyl (5μm) column run isocratically with acetonitrile-water (3:7) (Yamasaki et al.) Peaks were detected at 214 nm. The irradiated samples were compared with their corresponding non-UV-irradiated controls by measuring the height of the peak eluting at the appropriate Rt for each irradiated compound relative to each one's non-irradiated control. Results are expressed as the percent of the initial sample concentration remaining relative to the control. Each time point was done in at least triplicate fashion.

Heliothis virescens [3] = test: Relative activity of UV-irradiated compounds in inhibiting pupal development of fifth-instar larvae; format: in vivo; conditions: for Relative activity, inhibition of pupal development: relative to non-irradiated counterpart
Protocol: as §1
(§2) Individual larvae were injected per os on the first day of the fifth instar with 1.0 μg of either irradiated or non-irradiated compounds dissolved in 1.0 μl of 75% aqueous ethanol.
Table 3: Relative activity of azadirachtin, 3deacetylaza-dirachtin,
22,23dihydroazadirachtin, and 2',3',22,23tetrahydroazadirachtin, all of
which had been exposed for 15, 30, 90, 200, and 400 hours to UV radiation
inhibiting the pupal development of fifthinstar Heliothis virescens
(§3) larvae. Relative activity is defined as the percentage of larvae injected

Heliothis virescens [4] = test: Relative activity of UV-irradiated compounds in inhibiting adult development of fifth-instar larvae; format: in vivo; conditions: for Relative activity, inhibition of adult development: relative to non-irradiated counterpart
Protocol: as §1, §2
Table 4: Relative activity of azadirachtin, 3deacetylaza-dirachtin,
22,23dihydroazadirachtin, 2',3',22,23tetrahydroaza-dirachtin, all of whic
had been exposed for 15, 30, 90, 200, and 400 hours to UV radiation, in
inhibiting the adult development of fifthinstar Heliothis virescens
as §3
relative to the percentage injected with its nonirradiated counterpart

Heliothis virescens [5] = test: Oral injection of fifth-instar larvae, pupal and adult development (non-irradiated compounds); format: in vivo; conditions: for Adults (%) / Adults Deformed (%) / Pupae (%) / Unsuccessful Larvae-Pupae (%) / Unsuccessful Pupae-Adult (%): % of larvae; for inhibition of pupation (in words): 1.0 μg per os
Protocol: as §2
Table 2: Successful and unsuccessful pupal and adult development of
fifthinstar Heliothis Virescens larvae injected orally with 1.0 microgram
of either azadirachtin, 3deacetylazadirachtin, 22,23dihydroazadirachtin,
or 2',3',22,23tetrahydroazadirachtin.

[6] = 1.0 microgram injected orally, fifth-instar, non-irradiated

Row | Structure (SMILES) | EC50 (concentration causing 50% growth inhibition) (Heliothis virescens [1]) | UV lability (in words) [2] | Relative activity, inhibition of pupal development (Heliothis virescens [3]; 15 h UV exposure) [%] | Relative activity, inhibition of pupal development (Heliothis virescens [3]; 30 h UV exposure) [%] | Relative activity, inhibition of pupal development (Heliothis virescens [3]; 90 h UV exposure) [%] | ability to inhibit pupation after UV (in words) (Heliothis virescens [3]; 200 h UV) | Relative activity, inhibition of pupal development (Heliothis virescens [3]; 200 h UV exposure) [%] | ability to inhibit pupation after UV (in words) (Heliothis virescens [3]; 400 h UV) | Relative activity, inhibition of pupal development (Heliothis virescens [3]; 400 h UV exposure) [%] | Relative activity, inhibition of adult development (Heliothis virescens [4]; 15 h UV exposure) [%] | Relative activity, inhibition of adult development (Heliothis virescens [4]; 30 h UV exposure) [%] | Relative activity, inhibition of adult development (Heliothis virescens [4]; 90 h UV exposure) [%] | Relative activity, inhibition of adult development (Heliothis virescens [4]; 200 h UV exposure) [%] | Relative activity, inhibition of adult development (Heliothis virescens [4]; 400 h UV exposure) [%] | Number Adults (Heliothis virescens [5]; [6]) [Number] | Number Adults Deformed (Heliothis virescens [5]; [6]) [Number] | Unsuccessful Larvae-Pupae (number) (Heliothis virescens [5]; [6]) [Number] | Unsuccessful Pupae-Adult (number) (Heliothis virescens [5]; [6]) [Number] | Adults (%) (Heliothis virescens [5]; 1.0 microgram injected orally) | Adults Deformed (%) (Heliothis virescens [5]; 1.0 microgram injected orally) | further results
1 | COC(=O)C1(O)OCC23C(O)CC(OC(C)=O)C4(C(=O)OC)COC(C42)C(O)C(C)(C24OC2(C)C2CC4OC4OCCC42O)C13 (centres unmarked) [1-detigloyl-22,23-dihydroazadirachtin] | 0.59 (0.30-1.14) ppm |  |  |  |  |  |  |  |  |  |  |  |  |  |  |  |  |  |  |  | 
2 | CCC(C)C(=O)OC1CC(OC(C)=O)C2(C(=O)OC)COC3C2C12COC(O)(C(=O)OC)C2C(C)(C12OC1(C)C1CC2OC2OCCC21O)C3O (centres unmarked) [2',3',22,23-tetrahydroazadirachtin] | 0.08 (0.05-0.13) ppm | not UV-labile | 99.4 | 103.7 | 99.7 | most active in inhibiting pupation | 108.0 | some loss in activity; also recorded: still more active than the other test compounds | 69.1 | 100.0 | 100.0 | 100.0 | 100.0 | 100.0 | 0 | 0 | 6 | 1 | 0 | 0 | insecticidal activity (in words) (Heliothis virescens [1]; Heliothis virescens feeding): full activity; also recorded: fully active; degradation following 200 h of exposure to UV radiation (in words) [2]: no degradation; ability to inhibit larvae from reaching the adult stage after UV (in words) (Heliothis virescens [4]; 400 h UV): fully active; Pupae (%) (Heliothis virescens [5]; 1.0 microgram injected orally): 7.4%; Unsuccessful Larvae-Pupae (%) (Heliothis virescens [5]; 1.0 microgram injected orally): 4.4%; Unsuccessful Pupae-Adult (%) (Heliothis virescens [5]; 1.0 microgram injected orally): 0.7%; inhibition of pupation (in words) (Heliothis virescens [5]; non-irradiated): equally effective
3 | COC(=O)C1(O)OCC23C(OC(=O)C(C)(O)C(C)O)CC(OC(C)=O)C4(C(=O)OC)COC(C42)C(O)C(C)(C24OC2(C)C2CC4OC4OCCC42O)C13 (centres unmarked) [2',3'-dihydroxy-2',3',22,23-tetrahydroazadirachtin] | 3.80 (1.95-7.41) ppm |  |  |  |  |  |  |  |  |  |  |  |  |  |  |  |  |  |  |  | 
4 | C/C=C(\C)C(=O)OC1CC(O)C2(C(=O)OC)COC3C2C12COC(O)(C(=O)OC)C2C(C)(C12OC1(C)C1CC2OC2OC=CC21O)C3O (centres unmarked) [3-deacetylazadirachtin] | 0.09 (0.05-0.17) ppm | UV-labile | 115.2 | 135.0 | 139.5 | did decline | 86.8 | even greater decline | 41.0 | 103.2 | 106.3 | 106.3 | 96.0 | 72.3 | 10 | 10 | 13 | 4 | 5.9 | 5.9 | degradation following 400 h of exposure to UV radiation (in words) [2]: none of the three compounds remained in their original state; kinetics of UV degradation (in words) [2]: first-order reaction; activity retained after 90 h of exposure to UV radiation (in words) (Heliothis virescens [3]; 90 h UV): retained full activity; activity retained after 400 h of exposure to UV radiation (Heliothis virescens [3]; 400 h UV): approximately 50%; ability to inhibit pupation after UV (in words) (Heliothis virescens [3]; up to 90 h UV): not appreciably reduced; ability to inhibit larvae from reaching the adult stage after UV (in words) (Heliothis virescens [4]; 200 h UV): remained substantially unchanged until 400 h of irradiation; Number Pupae (Heliothis virescens [5]; [6]): 56 Number; Pupae (%) (Heliothis virescens [5]; 1.0 microgram injected orally): 33.1%; Unsuccessful Larvae-Pupae (%) (Heliothis virescens [5]; 1.0 microgram injected orally): 7.7%; Unsuccessful Pupae-Adult (%) (Heliothis virescens [5]; 1.0 microgram injected orally): 2.4%; inhibition of pupation (in words) (Heliothis virescens [5]; non-irradiated): less effective
5 | C/C=C(\C)C(=O)OC1CC(OC(C)=O)C2(C(=O)OC)COC3C2C12COC(OC(=O)OC)(C(=O)OC)C2C(C)(C12OC1(C)C1CC2OC2OCCC21OC(=O)OC)C3O (centres unmarked) [11,20-O, O-dicarbomethoxy-22,23-dihydroazadirachtin] | 29.0 (20.3-41.5) ppm |  |  |  |  |  |  |  |  |  |  |  |  |  |  |  |  |  |  |  | LC50 (Heliothis virescens [1]; Heliothis virescens, po, read-out: LC50 (concentration causing 50% mortality)): 90 µg/mL (≈ 107 µM)

Reference: patent publication US5047242A, “Azadirachtin derivative insecticides” (Native Plant Institute ("NPI"), priority 1987, dated 1991)
